Assays:
[1] = Safety evaluation: single dose 100 mg/kg by gavage, one week observation; type: in vivo, ICR mouse
Experimental: After grouping, each compound was administrated once through gavage according to the dose of 100 mg/kg at the same time.

[2] = target: T1, DPP IV (Mus musculus, UniProt P28843); experiment: DPP IV inhibitory activity in vivo: DPP IV activity in plasma of ICR mouse after single oral dose; conditions: oral 3 mg/kg, compared with Alogliptin and Vildagliptin (LAF237), FIG. 1-6
T1 construct: from tissue; host or cells: plasma of ICR mouse
T1 sequence (P28843 37-760 limits assumed): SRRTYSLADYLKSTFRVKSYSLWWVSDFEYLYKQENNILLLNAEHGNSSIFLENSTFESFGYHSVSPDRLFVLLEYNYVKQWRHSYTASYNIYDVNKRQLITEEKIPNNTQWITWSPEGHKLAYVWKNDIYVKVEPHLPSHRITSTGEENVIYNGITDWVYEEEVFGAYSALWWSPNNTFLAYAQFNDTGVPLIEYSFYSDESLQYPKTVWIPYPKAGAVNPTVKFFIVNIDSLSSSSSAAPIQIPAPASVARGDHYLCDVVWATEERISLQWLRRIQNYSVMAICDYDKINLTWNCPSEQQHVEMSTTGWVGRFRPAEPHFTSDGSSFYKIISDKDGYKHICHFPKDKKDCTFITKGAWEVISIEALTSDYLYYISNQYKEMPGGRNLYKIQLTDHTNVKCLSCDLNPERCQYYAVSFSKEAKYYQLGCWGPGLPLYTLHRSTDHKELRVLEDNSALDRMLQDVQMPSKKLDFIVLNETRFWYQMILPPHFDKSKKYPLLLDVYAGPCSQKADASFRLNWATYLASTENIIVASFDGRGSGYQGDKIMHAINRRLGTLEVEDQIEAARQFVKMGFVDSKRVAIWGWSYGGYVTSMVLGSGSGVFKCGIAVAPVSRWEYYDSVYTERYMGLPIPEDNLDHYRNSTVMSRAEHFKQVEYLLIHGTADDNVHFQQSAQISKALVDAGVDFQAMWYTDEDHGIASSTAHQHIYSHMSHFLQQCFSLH
Experimental: Animals: ICR mouse (8-10 weeks old; sex: male; 25 g-30 g of body weight, purchased from Shanghai SLAC Laboratory Animal Center).
Meanwhile the solvent group was used as blank control. The blood was taken from orbital venous plexus of the mouse before administration, and 30, 60, 2 h, 4 h, 6 h, 8 h and […] after administration, respectively and loaded into Eppendorf tube (Qizhong Industrial (Shanghai) co., Ltd.) treated by anticoagulant. The plasma was obtained by centrifugation and DPP IV activity was determined.

[3] = normal ICR mouse, 100 mg/kg single dose, 7th day
[4] = normal ICR mouse, 100 mg/kg single dose, 1 d after administration
[5] = normal ICR mouse, 100 mg/kg single dose, 2 d after administration
[6] = normal ICR mouse, 100 mg/kg single dose, 3 d after administration
[7] = normal ICR mouse, 100 mg/kg single dose, 4 d after administration
[8] = normal ICR mouse, 100 mg/kg single dose, 5 d after administration
[9] = normal ICR mouse, 100 mg/kg single dose, 6 d after administration
[10] = normal ICR mouse, 100 mg/kg single dose, 7 d after administration
[11] = normal ICR mouse, 100 mg/kg single dose, before administration

With `COC(=O)c1cc2nc(N3CCCC(N)C3)n(Cc3ccccc3C#N)c(=O)c2s1` (centres unmarked) [DC291407] the “effect on body weight (conclusion)” value ([1]; ICR mouse, 100 mg/kg single dose) was “possibly had no effect on body weight”, the acute toxicity ([1]; ICR mouse, 100 mg/kg single dose by gavage, one week) was “did not reflect obvious acute toxicity” and the “body weight versus normal control group (statistics)” value ([1]; ICR mouse, 100 mg/kg single dose, from second day to 7 days, 100 mg/kg) was “significant statistical difference”. The “kidney index versus normal control group (in words)” value ([1]; ICR mouse, 100 mg/kg, 7th day after administration) was “did not significantly differ”, the “spleen index versus normal control group (in words)” value ([1]; ICR mouse, 100 mg/kg, 7th day after administration, 100 mg/kg) was “significantly increased” and the “spleen index versus normal control group (in words)” value ([1]; ICR mouse, 100 mg/kg, 7th day after administration, listed as DC29147, 100 mg/kg) was “statistical difference”. It also gave a Kidney index [1, 3] of 1.5 ± 0.2%, a Liver index [1, 3] of 5.3 ± 0.4% and a Spleen index [1, 3] of 0.4 ± 0.0 %. It also gave a body weight [1, 4] of 30.0 ± 1.6 g, a food consumption [1, 4] of 18.4 g · day^−1 · cage^−1 and a body weight [1, 5] of 30.0 ± 1.7 g. The food consumption [1, 5] was 18.5 g · day^−1 · cage^−1, the body weight [1, 6] was 29.7 ± 1.9 g and the food consumption [1, 6] was 19.0 g · day^−1 · cage^−1. The body weight [1, 7] was 30.0 ± 1.5 g, the food consumption [1, 7] was 19.4 g · day^−1 · cage^−1 and the body weight [1, 8] was 30.5 ± 1.5 g. For the same compound, the food consumption [1, 8] was 22.3 g · day^−1 · cage^−1, the body weight [1, 9] was 30.4 ± 1.8 g and the food consumption [1, 9] was 22.6 g · day^−1 · cage^−1. The body weight [1, 10] was 30.6 ± 1.9 g, the food consumption [1, 10] was 23.5 g · day^−1 · cage^−1 and the body weight [1, 11] was 29.7 ± 1.8 g. For the same compound, the food consumption [1, 11] was 21.4 g · day^−1 · cage^−1 and the “DPP IV activity of ICR mouse plasma after single dose (given as hypoglycemic ability in vivo)” value [2] was “comparable to that of Alogliptin (3 mg), and better than that of Vildagliptin (LAF237, 15 mg)”.

From US9045491B2, “Thienyl [3,2-D] pyrimidin-4-one compounds, preparation method, pharmaceutical compositions and use thereof” (SHANGHAI INSTITUTE OF MATERIA MEDICA, CHINESE ACADEMY OF …, priority 2011, dated 2015)
